The target of this experiment is Phosphoribosylglycinamide formyltransferase (Escherichia coli) (UniProt P08179). Description: In vitro inhibitory activity against Glycinamide ribonucleotide transformylase (GAR Tfase) following 30 min pre-incubation at 250 uM concentration.
Sequence of Phosphoribosylglycinamide formyltransferase (Escherichia coli) (P08179 whole entry, looked up): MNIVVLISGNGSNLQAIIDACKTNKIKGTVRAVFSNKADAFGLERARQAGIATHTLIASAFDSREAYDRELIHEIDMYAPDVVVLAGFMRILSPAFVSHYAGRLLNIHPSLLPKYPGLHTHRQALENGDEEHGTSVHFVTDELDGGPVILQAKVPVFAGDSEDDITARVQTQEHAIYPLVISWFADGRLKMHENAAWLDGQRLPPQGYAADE
Usually inhibition stands for how much of the control response was suppressed. A low value points to a weak effect. `COC(=O)c1ccc(CN(CCc2c(N)nc(N)nc2O)c2ccc([N+](=O)[O-])c(F)c2F)cc1` displayed an inhibition of 60%. The figure for `COC(=O)c1ccc(CN(CCCc2c(N)nc(N)nc2O)c2ccc([N+](=O)[O-])c(F)c2F)cc1` is 57%; for `COC(=O)c1ccc(CN(CCc2c(N)nc(N)nc2O)c2cc(F)c([N+](=O)[O-])cc2[N+](=O)[O-])cc1` it is 24%; for `COC(=O)c1ccc(CN(CCc2c(N)nc(N)nc2O)c2cc(F)c(F)cc2[N+](=O)[O-])cc1` it is 3%. The figure for `Nc1nc(N)c(CCCNc2cc(F)c([N+](=O)[O-])cc2[N+](=O)[O-])c(O)n1` is 73%. With `COC(=O)c1ccc(CN(CCCc2c(N)nc(N)nc2O)c2cc(F)c(F)cc2[N+](=O)[O-])cc1`, the inhibition is 33%. The figure for `COC(=O)c1ccc(CN(CCCc2c(N)nc(N)nc2O)c2cc(F)cc(F)c2[N+](=O)[O-])cc1` is 5%; for `Nc1nc(N)c(CCCNc2cc(F)c(F)cc2[N+](=O)[O-])c(O)n1` it is 82%. As to `COC(=O)c1ccc(CN(CCc2c(N)nc(N)nc2O)c2cc(F)cc(F)c2[N+](=O)[O-])cc1`, the inhibition worked out at 9%.

`Nc1nc(N)c(CCCNc2cc(F)ccc2[N+](=O)[O-])c(O)n1` came in with an inhibition of 69%. In the case of `COC(=O)c1ccc(CN(CCCc2c(N)nc(N)nc2O)c2cc(F)ccc2[N+](=O)[O-])cc1` it was 41%. In the case of `COC(=O)c1ccc(CN(CCCc2c(N)nc(N)nc2O)c2cc(F)c([N+](=O)[O-])cc2[N+](=O)[O-])cc1` it was 9%; in that of `Nc1nc(N)c(CCCNc2cc(F)cc(F)c2[N+](=O)[O-])c(O)n1`, 70%; in that of `COC(=O)c1ccc(CN(CCc2c(N)nc(N)nc2O)c2cc(F)ccc2[N+](=O)[O-])cc1`, 43%.

These data come from ChEMBL document CHEMBL1133492, “Design, synthesis, and biological evaluation of fluoronitrophenyl substituted folate analogues as potential inhibitors of GAR transformylase and AICAR transformylase” (Bioorg Med Chem Lett, 2000).
